From ChEMBL document CHEMBL1131960, “Simple mono-derivatisation of the aryl moiety of D4A and DDA-based phosphoramidate prodrugs significantly enhances their anti-HIV potency in cell culture” (Bioorg Med Chem Lett, 1999) come the findings set out here.

A value given as a limit tells only on which side of the number the result lay.

The subject of series [1] is CCRF-CEM. Briefly: Compound was evaluated for its effective concentration (potency) to inhibit the growth of HIV-1 in CEM cell culture. The series is classed as functional, cell-based. As to conditions: Homo sapiens.
Series [2] concerns CCRF-CEM. Briefly: Compound was evaluated for its concentration (potency) to inhibit the growth of CEM cells. The series is classed as functional. To be noted: Homo sapiens.
The nature of series [3]: Compound was evaluated for its ability to inhibit the growth of HIV-2 in CEM cell culture (CC50/EC50). The series is classed as functional, CCRF-CEM.
Series [4] deals with CCRF-CEM. Briefly: Compound was evaluated for its effective concentration (potency) to inhibit the growth of HIV-2 in CEM cell culture. Type of series: functional, cell-based. As to conditions: Homo sapiens.
The nature of series [5]: Compound was evaluated for its ability to inhibit the growth of HIV-1 in CEM cell culture (CC50/EC50). Type of series: functional, CCRF-CEM.
Series [6] in a line: Compound was evaluated for its lipophilicity by 1-octanol/water (phosphate buffer, pH 7.0) and the partition coefficient (log P) was reported. Type of series: physicochemical.
In a further series the test system is esterase. Briefly: Compound was evaluated for esterase half-life (t 1/2) period using Pig Liver Esterase (PLE) assay. The series is classed as ADME, Sus scrofa.

`Nc1ncnc2c1ncn2[C@H]1CC[C@@H](CO)O1`: the EC50 (commonly the concentration needed to bring the measured effect to its halfway point) in the series on CCRF-CEM [1] was determined as 4000 nM; in the series with CCRF-CEM [4], 8000 nM. Also, in the series on CCRF-CEM [2], the CC50 (commonly the concentration that lowers cell viability or growth by half) is over 100000 nM. Besides, the figures for the SI in series [3] and in series [5] were over 13 and over 25, respectively. For the same molecule, the logD (as a rule, the decadic logarithm of the distribution of all forms, ionised or not, between an organic phase and buffer at a given pH) in series [6] was -0.22.
For the molecule `Nc1ncnc2c1ncn2[C@H]1C=C[C@@H](CO)O1`, in the series on CCRF-CEM [2], the CC50 stood at 91000 nM. In addition, the SI in series [3] and in series [5] was 4.6 throughout. This molecule also showed a logD in series [6] of -0.36.
Regarding `COC(=O)C(C)NP(=O)(OCC1CCC(n2cnc3c(N)ncnc32)O1)Oc1ccccc1` (stereo unspecified), the results for the EC50 in the series on CCRF-CEM [1] and with CCRF-CEM [4] were 16 nM and 35 nM, respectively. The same molecule had a CC50 in the series with CCRF-CEM [2] of 2570 nM. Moreover, the values for the SI in series [3] and in series [5] were 73 and 161, respectively. For the same molecule, the logD in series [6] is 0.89. In the series with esterase, the half-life (commonly how long it takes for the measured level to halve) is 12.5 days.
In the case of `COC(=O)C(C)NP(=O)(OCC1C=CC(n2cnc3c(N)ncnc32)O1)Oc1ccc(Br)cc1` (stereo unspecified), the EC50 was 3.2 nM with CCRF-CEM [1] and 2.7 nM in the series on CCRF-CEM [4]. Besides, it took 840 nM to reach half-maximal cytotoxicity in the series on CCRF-CEM [2] (CC50). Moreover, the SI is reported as 311 in series [3] and 263 in series [5]. The molecule further had a logD in series [6] of 1.72. This molecule had a half-life in the series with esterase of 4.17 days.
For `COC(=O)C(C)NP(=O)(OCC1CCC(n2cnc3c(N)ncnc32)O1)Oc1cccc(Br)c1` (stereo unspecified), the EC50 was 2.3 nM in the series with CCRF-CEM [1] and 3.3 nM in the series on CCRF-CEM [4]. Also, the CC50 in the series with CCRF-CEM [2] came out at 560 nM. Besides, the SI in series [3] stood at 170; in series [5], 243. In addition, the logD in series [6] is 1.71. Moreover, the half-life in the series with esterase is 3.12 days.
`COC(=O)C(C)NP(=O)(OCC1C=CC(n2cnc3c(N)ncnc32)O1)Oc1ccc(I)cc1` (stereo unspecified): the EC50 with CCRF-CEM [1] stood at 2.3 nM; with CCRF-CEM [4], 1.7 nM. In the series on CCRF-CEM [2], this molecule showed a CC50 of 860 nM. Moreover, the SI in series [3] is recorded as 506; in series [5], 374. Further, in series [6], the log distribution coefficient (logD) turned out to be 2.11. This molecule also had a half-life with esterase of 2.58 days.
As to `COC(=O)C(C)NP(=O)(OCC1CCC(n2cnc3c(N)ncnc32)O1)Oc1cccc(I)c1` (stereo unspecified), the EC50 was 2.2 nM in the series on CCRF-CEM [1] and 2.7 nM in the series with CCRF-CEM [4]. The same molecule yielded a CC50 in the series on CCRF-CEM [2] of 430 nM. Moreover, the values for the SI in series [3] and in series [5] were 159 and 195, respectively. In series [6], this molecule yielded a logD of 2.07. For the same molecule, the half-life with esterase is 2.58 days.
Take `COC(=O)C(C)NP(=O)(OCC1C=CC(n2cnc3c(N)ncnc32)O1)Oc1ccccc1` (stereo unspecified): the EC50 in the series on CCRF-CEM [1] is 5.5 nM. In addition, the CC50 in the series with CCRF-CEM [2] is 3800 nM. Further, the SI in series [3] worked out at 211; in series [5], 691. This molecule gave a logD in series [6] of 0.94. In the series with esterase, this molecule showed a half-life of 12.5 days.
